Data published in US20250288599A1, “PHARMACEUTICAL COMPOSITIONS AND METHODS FOR TREATING OSTEOARTHRITIS” (INSIGNIA PHARMACEUTICALS, LLC, priority 2024, published 2025).
Each block holds one compound with its values, some of them ahead of it.

Experiments:
[1] = system: PGE2 release from normal human chondrocytes; experiment: IL-1β-induced PGE2 release from normal human chondrocytes, 24 h, DA vs decanoate working solutions; format: cell-based; conditions: for inhibition at 25 µM: Homo sapiens, Chondrocyte, 25 micromolar
Description: The activity of DA working solutions prepared in either saline or lactated ringer's (LR) isotonic solutions was assessed. […] In addition, concentrated decanoate working solutions in saline or LR were prepared and added to the cultures at a final concentration of 25 micromolar. PGE2 release was then compared to matching points on the DA or decanoate medium as well as saline and LR controls.

[2] = system: PGE2 release from passage 3 normal human chondrocytes; experiment: Rescue versus preincubation regimens, IL-1β-induced PGE2 release from passage 3 normal human chondrocytes; format: cell-based; conditions: Homo sapiens, Chondrocyte, 25 μM Dec, singlet
Description: The mechanisms of action (MOA) of a drug often dictate the timing and delivery of treatment regimens. While the MOA of compounds disclosed herein continue to be elucidated, experiments were designed to help establish how the drugs should be administered. Furthermore, these experiments will also help with hypothesis generation for subsequent MOA investigations. A low-passage chondrocyte monolayer model was utilized to establish how changes in drug delivery impact the inhibition of IL-1β-induced PGE2 release seen following treatment with the compounds under investigation.
Passage 3 normal human chondrocytes were seeded into tissue culture plates and then tested for compound activity by pre-treating for 24 hours, administering at the same time as activation, or by adding to cells following an overnight activation with IL-1β. Treatment groups included medium control, 25 μM decanoate (Dec), 28 mM D/L sodium Lac, and 10 μM LA. PGE2 release was then evaluated 24- or 96-hours post-activation with percent inhibitions calculated versus plate- and block-matched controls. The experiments were performed in singlet and are intended to be repeated to establish variance.

[3] = system: IL-1β release from human THP1 macrophages; experiment: Two-hit (LPS then ATP) inflammasome activation model, IL-1β release from THP1 macrophages; format: cell-based; conditions: for IC50: Homo sapiens
Description: The proinflammatory cytokine, IL-1β, is released from cells upon activation of the inflammasome, a multi-protein proinflammatory complex. A two-hit model of inflammasome activation in THP1 macrophages was developed that entails an overnight stimulation with LPS followed by a second proinflammatory stimulus, extracellular ATP, which drives inflammasome assembly and subsequent IL-1β release from the cells into the media.

[4] = system: PGE2 release from normal human chondrocytes; experiment: IL-1β-induced PGE2 release from normal human chondrocyte monolayers, 48 h, competitive EIA; format: cell-based
Description: Mechanical stress and inflammation are thought to sustain catabolic cycles of extracellular matrix deterioration during osteoarthritis. In particular, PGE2 correlates with increased protease production and discomfort or pain in osteoarthritis.
After 48-hours, PGE2 release was evaluated by competitive EIA, and relative potency was calculated versus dose responses of Dex alone.
After 48 hours, PGE2 release was evaluated by competitive enzyme immunoassay (EIA), and relative potency was calculated versus Dex alone.
Lac is commonly thought to be simply an end-product of anaerobic glycolysis; however, it may also have immunomodulatory effects and promote protein modifications that alter gene expression. The goal of this experiment was to determine how Lac supplementation affects early-phase, inflammatory, and late-stage redifferentiation in chondrocyte models. To establish how Lac may influence inflammation early in osteoarthritis, monolayers of normal human chondrocytes were exposed to Lac dose responses of up to 100 millimolar, concurrently with 0.5 nanograms per milliliter IL-1β for 48 hours. The release of PGE2 was then quantified using competitive EIA. To investigate how Lac affects transcriptional programs in dedifferentiated osteoarthritic chondrocytes, monolayer cultures and micromass pellets were treated for 14 days with 100 millimolar final concentrations of Lac, with and without 10 nanograms per milliliter transforming growth factor beta 3 (TGF-β3). Total RNA was then isolated, and relative expression of SOX9 or Col2a1 was calculated using qRT-PCR, normalized to GAPDH.

[5] = system: MMP13 expression in primary human chondrocytes from an osteoarthritic patient; experiment: MMP13 relative expression in primary human osteoarthritic chondrocytes treated with HA and/or Dex; format: cell-based; conditions: 0.1% HA, 0.1 μM Dex
Description: Without being bound by theory, it is hypothesized that HA treatment in combination with Dex could provide a therapeutic strategy that promotes HA's beneficial effects while maintaining Dex's anti-inflammatory response. To investigate this, primary human chondrocytes from an osteoarthritic patient were treated with 0.1% HA and/or 0.1 μM Dex in monolayer culture or micromass pellets for 14 to 28 days. Total mRNA was then extracted, and qRTPCR was performed with primer pairs specific for MMP13 and the housekeeping gene GAPDH. Relative expression was then calculated versus controls, with each sample normalized to GAPDH amplification.

[6] = system: MMP13 expression in human osteoarthritic chondrocytes; experiment: MMP13 relative expression in high and low passage osteoarthritic chondrocytes; format: cell-based; conditions: low passage osteoarthritic chondrocytes; 7, 14, 28 days
[7] = system: SOX9 expression in human osteoarthritic chondrocytes; experiment: SOX9 relative expression in high and low passage osteoarthritic chondrocytes, 7, 14 or 28 days; format: cell-based
Description: Media was exchanged bi-weekly. […] SOX9 is a transcription factor vital to the development and maintenance of cartilage and is required for chondrogenesis. SOX9 promotes chondrocyte survival and transcriptionally activates cartilage-specific genes. SOX9 is repressed in hypertrophic chondrocytes (i.e. terminally differentiated osteoblast-like cells).

[8] = system: SOX9 expression in dedifferentiated osteoarthritic chondrocytes; experiment: SOX9 relative expression in high passage osteoarthritic chondrocyte monolayer model with TGF-β; format: cell-based, human; conditions: 14 days in culture with TGF-β; 28 mM Lac, 100 mm LA
Description: (§1) These compounds were tested in a high passage osteoarthritic chondrocyte monolayer model, alone or in combination with other agents, for both transcriptional regulation of standard markers and IL-1β-induced PGE2 production.

[9] = system: Col2a1 expression in dedifferentiated osteoarthritic chondrocytes; experiment: Col2a1 relative expression in high passage osteoarthritic chondrocyte monolayer model with TGF-β; format: cell-based, human; conditions: 14 days in culture with TGF-β; 28 mM Lac, 100 mm LA
Description: as §1

[10] = system: PGE2 release from dedifferentiated osteoarthritic chondrocytes; experiment: IL-1β-induced PGE2 release in high passage osteoarthritic chondrocyte monolayer model, 24 h; format: cell-based; conditions: Homo sapiens
Description: as §1

[11] = system: PGE2 in primary human osteoarthritic synoviocytes; experiment: Early, pretreatment and intracellular vs secreted PGE2 in IL-1β-stimulated human osteoarthritic synoviocytes; format: cell-based; conditions: 200 nanomolar DA or 500 nanograms/milliliter IL-1RA; IL-1β 1 nanogram/milliliter
Description: The concentrations in FIG. 31A were measured at hour three.
Cells were also treated with IL-IRA which inhibits IL-1β by binding the cell-surface […] and inhibiting its dimerization with the IL-1 receptor (IL-1R), effectively blocking IL-1β signaling.
FIG. 33 illustrates two bar graphs that depict the concentrations of PGE2 inside of the cell versus PGE2 that was secreted into the cell culture media. Specifically, the bar graph labeled “Intracellular” illustrates the concentrations of PGE2 inside of the cell and the bar graph labeled “Supernatent” illustrates the concentration of PGE2 that was secreted into the cell culture media. Synoviocytes were stimulated with IL-1β for 6 hours and then cell culture media harvested separately along with collecting cell lysates. […] To test this, the PGE2 concentrations inside of the cells and in the cell culture media were measured to compare them directly to each other.

[12] = 24 h, rescue (added after overnight IL-1β activation), 24-hour harvest, 28 mM Lac, 10 μM LA
[13] = 14-day micromass pellet culture
[14] = high passage, dedifferentiated osteoarthritic chondrocytes with TGF-β3, 14 days

Compound: CCCCCCCCCC(=O)[O-].[Na+] [Dec, sodium decanoate]
relative potency of decanoate as compared to DA ([1]; 95 percent confidence interval of 0.80-1.06): 0.92 | inhibition at 25 µM ([1]; prepared in LR): 65.2% | inhibition at 25 µM ([1]; prepared in medium): 62.3% | inhibition at 25 µM ([1]; prepared in saline): 63.2% | inhibition at 25 µM ([2]; 24 h, added at the same time as IL-1β, 24-hour harvest): 53% | inhibition at 25 µM [2, 12]: 72% | inhibition at 25 µM ([2]; 96 h, added at the same time as IL-1β, 96-hour harvest): 76% | inhibition at 25 µM ([2]; 96 h, rescue, 96-hour harvest, 28 mM Lac, 10 μM LA): 57% | inhibition at 25 µM ([2]; pre-incubation 24 hours before IL-1β, 24-hour harvest, 28 mM Lac, 10 μM LA): 41% | inhibition at 25 µM ([2]; pre-incubation, 96-hour harvest): 75% | increase in potency of sodium decanoate by 25 nanomolar Dex [3]: 4.6 × | IC50 ([3]; THP-1, repeated experiments comparing DA to sodium decanoate): 146 µM | IC50 ([3]; THP-1, sodium decanoate with addition of 25 nanomolar Dex): 31.5 µM

IC50 ([3]; THP-1, Dex phosphate alone, 1 picomolar to 10 micromolar): 0.046 µM | IC50 ([3]; THP-1, Dex with addition of 100 micromolar DA): 0.0234 µM
Compound: C[C@@H]1C[C@H]2[C@@H]3CCC4=CC(=O)C=C[C@]4(C)[C@@]3(F)[C@@H](O)C[C@]2(C)[C@@]1(O)C(=O)CO [Dex, dexamethasone, reference compound]
inhibition at 0.01 µM ([4]; Homo sapiens, Chondrocyte, Dex 10 nanomolar final, IL-1β 500 pg/mL, 48 h): 100% | concentration at which statistical significance of PGE2 suppression was observed ([4]; IL-1β 48 h): 100 picomolar | increased Dex potency by 100 micromolar DA [3]: 1.969 × | Observed Relative expression of MMP13 [5, 13]: −38.6 fold | Observed Relative expression of MMP13 ([5]; 28-day monolayer culture): −3.6 fold

Compound: C[C@@H]1C[C@H]2[C@@H]3CCC4=CC(=O)C=C[C@]4(C)[C@@]3(F)[C@@H](O)C[C@]2(C)[C@@]1(O)C(=O)COP(=O)(O)O [Dxp, dexamethasone phosphate, reference compound]
MMP13 transcription [6]: reduce MMP13 transcription | SOX9 expression [7, 14]: decreased expression of SOX9 | SOX9 expression ([7]; low passage osteoarthritic chondrocytes, 7, 14, 28 days): temporal decrease in expression of SOX9

Compound: O=C(O)CCCCC1CCSS1 (stereo not drawn) [LA, α-lipoic acid]
increase in SOX9 transcription [8]: 4 fold | inhibition at 10 µM [2, 12]: 85% | increase in Col2a1 compared to controls [9]: 218 fold | inhibition at 1 µM ([10]; LA 1 μM final): 33% | inhibition at 10 µM ([10]; LA 10 μM final): 44% | inhibition at 100 µM ([10]; LA 100 μM final): 93% | SOX9 expression [7, 14]: increased SOX9 transcription

Compound: IL-1RA: IL-1 Receptor Antagonist, blocks IL-1β signaling
PGE2 release after pretreatment (5 minutes, 1 hour, or 2 hours) then IL-1β 10 minutes or 1 hour [11]: consistently higher than PGE2 levels in DA treated cells

Compound: hyaluronic acid [HA]
Observed Relative expression of MMP13 [5, 13]: −1.6 fold | Observed Relative expression of MMP13 ([5]; 28-day monolayer culture): 1.0 fold
